Molecular target: Mitogen-activated protein kinase kinase kinase 7 (TAK1/MAP3K7) (Homo sapiens) (UniProt O43318)
Test: Inhibition of human TAK1 using ATP as substrate

Chain of Mitogen-activated protein kinase kinase kinase 7 (TAK1/MAP3K7) (Homo sapiens) (O43318 whole entry, looked up): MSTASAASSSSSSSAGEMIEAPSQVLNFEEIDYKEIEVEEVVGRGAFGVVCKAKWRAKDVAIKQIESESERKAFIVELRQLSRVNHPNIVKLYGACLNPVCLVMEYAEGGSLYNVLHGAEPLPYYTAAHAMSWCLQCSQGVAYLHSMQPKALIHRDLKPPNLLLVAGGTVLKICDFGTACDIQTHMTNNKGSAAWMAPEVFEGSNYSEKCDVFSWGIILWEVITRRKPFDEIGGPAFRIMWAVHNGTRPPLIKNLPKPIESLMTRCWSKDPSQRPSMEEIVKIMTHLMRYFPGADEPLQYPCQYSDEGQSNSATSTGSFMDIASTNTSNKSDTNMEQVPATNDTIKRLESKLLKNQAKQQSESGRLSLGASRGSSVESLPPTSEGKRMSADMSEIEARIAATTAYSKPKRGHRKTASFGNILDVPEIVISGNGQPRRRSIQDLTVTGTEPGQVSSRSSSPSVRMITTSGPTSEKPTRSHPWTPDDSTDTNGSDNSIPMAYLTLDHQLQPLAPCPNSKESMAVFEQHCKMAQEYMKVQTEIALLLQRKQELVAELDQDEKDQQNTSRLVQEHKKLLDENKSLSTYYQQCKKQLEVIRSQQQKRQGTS

IC50: 14 nM
Compound: CC(C)Cn1c2ccc(Nc3ncccn3)cc2c2c3c(c4c(c21)CCc1nn(C)cc1-4)C(=O)NC3 [CEP-11981]

From BindingDB's records for doi:10.1021/jm201449n (Cephalon, 2012)
